# Like-named read-outs stand apart in the source and are kept apart here.
# Experiments:
# Piezo1 = conditions: cited from earlier work
# [1] = Serum concentration of CMPF in normal and uremic subjects; type: in vivo, human; conditions: uremic versus average normal concentration
# Method: FIG. 4 illustrates carboxy-4-methyl-5-propyl-2-furanpropionate (CMPF) 401 in accordance with the present disclosure. CMPF is a 240 Da metabolite of furan fatty acids and a protein-bound uremic retention solute normally cleared by the healthy kidney. In CKD patients, CMPF levels are increased 5- to 15-fold compared to healthy subjects.
# An average normal concentration for CMPF may be a mean (±SD) of about 4.6±1.8 with a range between about 3.6 and 7.7 mg/L. In uremic patients the mean concentration (CU) is about 25.9±10.2 mg/L (with a range of about 3.7 to 94 mg/L).
# Accordingly, the relative increase (CU/CN) may be over 5-times higher than the average normal concentration. […] As much as 99.5% of all CMPF may be found bound to HSA in serum. Consequently, this high association to HSA may prevent a sufficient secretion due to lower renal clearance rates in uremic patients, for example, at a rate of about 0.05 mL/min, compared to 0.40 mL/min for healthy patients. Due to its strong binding affinity to HSA, the removal of CMPF through conventional hemodialysis is generally difficult and even practically ineffective.
# HSA = biological target: T1, HSA (Homo sapiens, UniProt P02768); conditions: cited from earlier work
# T1 construct: from tissue; host or cells: serum
# T1 sequence (P02768 25-609): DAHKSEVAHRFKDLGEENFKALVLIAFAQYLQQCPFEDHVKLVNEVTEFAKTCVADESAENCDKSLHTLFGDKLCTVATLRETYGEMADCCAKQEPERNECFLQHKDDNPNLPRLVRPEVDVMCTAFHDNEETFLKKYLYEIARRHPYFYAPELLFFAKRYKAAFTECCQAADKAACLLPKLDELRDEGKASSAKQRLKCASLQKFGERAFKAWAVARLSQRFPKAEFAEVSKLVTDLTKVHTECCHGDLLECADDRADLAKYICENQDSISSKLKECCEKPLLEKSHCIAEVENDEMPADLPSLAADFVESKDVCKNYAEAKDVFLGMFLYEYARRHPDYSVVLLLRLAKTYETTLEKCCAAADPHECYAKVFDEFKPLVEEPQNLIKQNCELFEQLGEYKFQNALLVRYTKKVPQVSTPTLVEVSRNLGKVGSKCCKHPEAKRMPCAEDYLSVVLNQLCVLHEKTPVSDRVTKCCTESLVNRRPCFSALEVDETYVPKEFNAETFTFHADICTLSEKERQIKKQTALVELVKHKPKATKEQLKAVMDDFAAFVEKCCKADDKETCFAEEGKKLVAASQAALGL
# [2] = biological target: human serum albumin (HSA) (Homo sapiens, UniProt P02768); conditions: cited from earlier work
# human serum albumin (HSA), sequence (P02768 25-609): as above
# [3] = cited from earlier work
# [4] = cited from earlier work; remark: listed apart in the source
# HSA's binding site 1 = HSA's binding site 1 (Homo sapiens, UniProt P02768); conditions: cited from earlier work
# HSA's binding site 1, sequence (P02768 25-609): as above
structure (smiles),measurement,setting,value
Cc1oc(-c2ccccc2)cc1C(=O)O [Jedi1],Piezo1 stimulation,Piezo1,stimulate Piezo1
"CCCc1oc(CCC(=O)O)c(C(=O)O)c1C [CMPF, 3-carboxy-4-methyl-5-propyl-2-furanpropionate]",relative increase (CU/CN),[1],over 5 times
same,CMPF found bound to HSA in serum,HSA,≤ 99.5%
same,constant of association with HSA molecules,[2],about 10^8 M^−1
same,"average normal concentration, mean (±SD)",[3]; normal,about 4.6±1.8 mg/L
same,mean concentration (CU),[3]; uremic patients,about 25.9±10.2 mg/L
same,renal clearance rate,[4]; healthy patients,0.40 mL/min
same,renal clearance rate,[4]; uremic patients,about 0.05 mL/min
Cc1oc(-c2cccs2)cc1C(=O)O [Jedi2],Piezo1 stimulation,Piezo1,stimulate Piezo1
Clc1cccc(Cl)c1CSc1nnc(-c2cnccn2)s1 [Yoda1],Piezo1 stimulation,Piezo1,stimulate Piezo1
"CC(C)C1=CC(=O)C2(C)C(C1=O)C1(C)C(=O)C=C(C(C)C)C(=O)C21 (centres unmarked) [DTQ, dithymoquinone]",binding affinity towards HSA's binding site 1 relative to CMPF,HSA's binding site 1,higher binding affinity towards HSA's binding site 1 than CMPF
